According to article PMC12405493, “Selective ubiquitination of drug-like small molecules by the ubiquitin ligase HUWE1” (Nature Communications, 2025):
Each block holds one molecule with its values, some of them ahead of it.

Legend:
HEK293T WT cells = experiment: Click chemistry-based detection of compound ubiquitination in cell lysates; set-up: species or system human; settings: for Compound ubiquitination in cells (click chemistry, cell lysates): HEK293T WT, 10 μM or 20 μM
Procedure: Cell lysate-based applications: HEK293T WT or HUWE1 KO cells at ~70% confluency on a 10-cm dish were treated with 10 μM or 20 μM BI8626 derivative 6, 7 or 8 for the indicated times. As indicated in the results section, derivative 8 yielded slightly stronger signal than 6 and was thus used for analyses of the prerequisites of cellular small-molecule ubiquitination. Treatment with 1 μM TAK243 (MedChemExpress) or 10 μM MLN4924 (Sigma-Aldrich) was performed for 1 h, prior to derivative 8 administration. Cells were collected with ice-cold 1 x DPBS, centrifugated, and the cell pellet was resuspended in 300 μL sodium phosphate buffer (pH 7.0) (Jena Bioscience), supplemented with 1% (v/v) NP-40, 3 M urea, 10 mM NEM, 50 μM PR-619, 10 μM MG-132 and protease-phosphatase inhibitor cocktail. After 20 min rotating at 4 °C, the lysate was cleared by centrifugation, the total protein concentration determined with a Pierce BCA Protein Assay Kit, the sample diluted to ~7.5 μg μL^−1 and supplemented with 5 μM IRDye 800CW Azide (LI-COR), a mixture of 2 mM CuSO4/10 mM THPTA (Jena Bioscience) and 100 mM sodium ascorbate. The click chemistry reaction was performed in the dark at 37 °C, shaking at 300 rpm. After 1 h, the reaction was quenched with 40 mM EDTA, diluted 1.2-fold with 10 mM Tris (pH 7.5), 150 mM NaCl and 0.5 mM EDTA. 25 μL Ubiquitin-Trap Magnetic Agarose beads (Proteintech) were added, the mixture was rotated at 4 °C for 80 min, the resin washed 3 x with 10 mM Tris (pH 7.5), 150 mM NaCl, 0.05% (v/v) NP-40, 0.5 mM EDTA and 3 M urea, following protein elution in 40 μL of 1.5 x SDS-loading dye at 95 °C for 5 min. 10 μL were subjected to SDS-PAGE and analyzed by fluorescence scanning (Odyssey CLx; LI-COR) and Coomassie staining.

HUWE1^HECT [1] = target: T1, HUWE1^HECT (Homo sapiens, UniProt Q7Z6Z7); experiment: HUWE1^HECT multi-turnover ubiquitination reactions (fluorescent Ub tracer, SDS-PAGE); assay type: biochemical; settings: 20 μM compound
T1 construct: the isolated HECT domain of HUWE1 (HUWE1^HECT); made in house
T1 sequence (Q7Z6Z7 4038-4374 limits assumed): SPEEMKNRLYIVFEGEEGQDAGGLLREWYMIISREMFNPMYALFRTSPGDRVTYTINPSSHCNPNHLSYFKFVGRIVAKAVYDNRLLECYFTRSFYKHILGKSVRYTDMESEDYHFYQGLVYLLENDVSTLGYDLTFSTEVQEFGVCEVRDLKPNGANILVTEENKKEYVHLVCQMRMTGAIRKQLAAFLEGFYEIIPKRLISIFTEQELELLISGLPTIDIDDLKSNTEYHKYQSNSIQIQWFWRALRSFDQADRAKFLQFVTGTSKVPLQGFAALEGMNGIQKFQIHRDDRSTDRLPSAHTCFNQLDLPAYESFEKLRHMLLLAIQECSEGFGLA
Procedure: (§1) HUWE1^HECT multi-turnover ubiquitination reactions were performed for 30 minutes (unless stated otherwise) with 200 nM UBA1, 5 μM UBE2L3 or UBE2D3 (as specified), 1 μM HUWE1^HECT and 30 μM Ub in 25 mM HEPES (pH 7.5), 100 mM NaCl, 3 mM MgCl2, and 0.5 mM TCEP. HUWE1^FL multi-turnover ubiquitination reactions included 50 nM UBA1, 2.5 μM UBE2L3, 0.05 μM HUWE1^FL, 0.5 μM MCL1 (or 0.5 μM H2B or 1 μM FOXP3) and 20 μM Ub in 20 mM HEPES (pH 7.5), 100 mM NaCl, 3 mM MgCl2, and 0.5 mM TCEP. All multi-turnover reactions were started by the addition of 1 mM ATP, incubated at 30 °C, quenched with SDS-loading dye. If not stated otherwise, HUWE1^FLautoubiquitination reactions were incubated for 20 minutes. Substrate ubiquitination reactions with MCL1 or H2B were incubated for 10 and 20 min, respectively; those with FOXP3 for 30 min. Those reactions that were monitored by fluorescence contained a fluorescent Ub tracer (IRDye 800CW maleimide; LI-COR)[55] and were monitored using an Odyssey CLx scanner (LI-COR), followed by Coomassie staining. In the fluorescence images, only those marker bands are labeled (in kDa) that are visible by fluorescence; all marker bands are labeled in the Coomassie-stained images. Statistical analyses were performed with Prism 9 v.9.3.1 (GraphPad).

HUWE1^HECT [2] = target: T2, HUWE1^HECT (Homo sapiens, UniProt Q7Z6Z7); experiment: Analytical SEC / intact protein MS of HUWE1^HECT-driven compound ubiquitination; assay type: biochemical; settings: 20 μM compound; + ATP; WT Ub
T2 construct: the isolated HECT domain of HUWE1 (HUWE1^HECT); made in house
T2 sequence (Q7Z6Z7 3993-4374): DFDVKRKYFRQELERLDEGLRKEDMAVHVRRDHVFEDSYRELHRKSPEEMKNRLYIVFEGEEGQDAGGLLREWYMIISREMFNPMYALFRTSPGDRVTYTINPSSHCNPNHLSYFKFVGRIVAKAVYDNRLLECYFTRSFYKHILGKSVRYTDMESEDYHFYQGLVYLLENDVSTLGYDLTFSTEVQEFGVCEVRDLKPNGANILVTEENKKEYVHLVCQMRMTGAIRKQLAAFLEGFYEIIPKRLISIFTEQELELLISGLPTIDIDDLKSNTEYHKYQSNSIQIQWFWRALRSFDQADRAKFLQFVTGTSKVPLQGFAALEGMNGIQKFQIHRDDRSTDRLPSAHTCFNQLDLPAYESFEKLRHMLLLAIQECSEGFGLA
Procedure: HUWE1^HECT multi-turnover ubiquitination reactions were performed with 500 nM UBA1, 5 μM UBE2L3, 5 μM HUWE1^HECT and 100 μM Ub in 20 mM HEPES (pH 7.5), 100 mM NaCl and 0.5 mM TCEP in the presence of 1 mM ATP and 3 mM MgCl2. After 15 min incubation at 30 °C, the mixture was injected into a Superdex 75 Increase 3.2/300 column (Cytiva), equilibrated in 25 mM HEPES (pH 7.5), 100 mM NaCl, and 0.5 mM TCEP at 4 °C. Chromatograms were analyzed and peaks integrated with Unicorn v.7.9.02440 (Cytiva). Data were plotted with Prism v.9.3.1 (GraphPad).
Intact protein LC/MS: protein molecular weights (MWs) were determined by LC/MS on a nanoflow chromatography system (Dionex U3000 nanoRSLC), hyphenated to a hybrid quadrupole/orbitrap mass spectrometer (Q Exactive HF) with a NanoFlex ion source and controlled by Xcalibur v.2.4 (all Thermo Fisher Scientific). Proteins were dissolved in 2% (v/v) acetonitrile (ACN), 0.1% (v/v) formic acid (FA) to a concentration of 100 fmol μL^−1. For each analysis, 500 fmol were enriched on a pre-column (0.15 ×20 mm, Reprosil-Pur120 C18-AQ 5 μm; Dr. Maisch GmbH) and separated on an analytical RP-C18 column (0.075 mm×200 mm, Reprosil-Pur 120 C18-AQ; 1.9 μm, Dr. Maisch GmbH), using a 23-min linear gradient of 10–80% (v/v) ACN/0.1% (v/v) FA at 300 nl min^−1. MS data were acquired in full MS mode across the 500–1800 m/z-range at a resolution setting of 120,000 FWHM, an AGC target of 1*10e6 and a maximum fill time of 200 ms. Charge state deconvolution and MW representation were performed in Freestyle v.1.9 (Thermo Fisher Scientific), using default settings for high-resolution data.

HUWE1^FL [3] = target: T3, HUWE1^FL (Homo sapiens, UniProt Q7Z6Z7); experiment: HUWE1^FL multi-turnover ubiquitination reactions without protein substrate (autoubiquitination, free Ub chains); assay type: biochemical; settings: for Inhibition by derivatives modified at the piperazine-linked benzyl moiety: Supplementary Fig. 18c, d
T3 construct: made in house; host or cells: HEK293T (transient transfection, anti-Flag purification, SEC)
T3 sequence (Q7Z6Z7 whole entry): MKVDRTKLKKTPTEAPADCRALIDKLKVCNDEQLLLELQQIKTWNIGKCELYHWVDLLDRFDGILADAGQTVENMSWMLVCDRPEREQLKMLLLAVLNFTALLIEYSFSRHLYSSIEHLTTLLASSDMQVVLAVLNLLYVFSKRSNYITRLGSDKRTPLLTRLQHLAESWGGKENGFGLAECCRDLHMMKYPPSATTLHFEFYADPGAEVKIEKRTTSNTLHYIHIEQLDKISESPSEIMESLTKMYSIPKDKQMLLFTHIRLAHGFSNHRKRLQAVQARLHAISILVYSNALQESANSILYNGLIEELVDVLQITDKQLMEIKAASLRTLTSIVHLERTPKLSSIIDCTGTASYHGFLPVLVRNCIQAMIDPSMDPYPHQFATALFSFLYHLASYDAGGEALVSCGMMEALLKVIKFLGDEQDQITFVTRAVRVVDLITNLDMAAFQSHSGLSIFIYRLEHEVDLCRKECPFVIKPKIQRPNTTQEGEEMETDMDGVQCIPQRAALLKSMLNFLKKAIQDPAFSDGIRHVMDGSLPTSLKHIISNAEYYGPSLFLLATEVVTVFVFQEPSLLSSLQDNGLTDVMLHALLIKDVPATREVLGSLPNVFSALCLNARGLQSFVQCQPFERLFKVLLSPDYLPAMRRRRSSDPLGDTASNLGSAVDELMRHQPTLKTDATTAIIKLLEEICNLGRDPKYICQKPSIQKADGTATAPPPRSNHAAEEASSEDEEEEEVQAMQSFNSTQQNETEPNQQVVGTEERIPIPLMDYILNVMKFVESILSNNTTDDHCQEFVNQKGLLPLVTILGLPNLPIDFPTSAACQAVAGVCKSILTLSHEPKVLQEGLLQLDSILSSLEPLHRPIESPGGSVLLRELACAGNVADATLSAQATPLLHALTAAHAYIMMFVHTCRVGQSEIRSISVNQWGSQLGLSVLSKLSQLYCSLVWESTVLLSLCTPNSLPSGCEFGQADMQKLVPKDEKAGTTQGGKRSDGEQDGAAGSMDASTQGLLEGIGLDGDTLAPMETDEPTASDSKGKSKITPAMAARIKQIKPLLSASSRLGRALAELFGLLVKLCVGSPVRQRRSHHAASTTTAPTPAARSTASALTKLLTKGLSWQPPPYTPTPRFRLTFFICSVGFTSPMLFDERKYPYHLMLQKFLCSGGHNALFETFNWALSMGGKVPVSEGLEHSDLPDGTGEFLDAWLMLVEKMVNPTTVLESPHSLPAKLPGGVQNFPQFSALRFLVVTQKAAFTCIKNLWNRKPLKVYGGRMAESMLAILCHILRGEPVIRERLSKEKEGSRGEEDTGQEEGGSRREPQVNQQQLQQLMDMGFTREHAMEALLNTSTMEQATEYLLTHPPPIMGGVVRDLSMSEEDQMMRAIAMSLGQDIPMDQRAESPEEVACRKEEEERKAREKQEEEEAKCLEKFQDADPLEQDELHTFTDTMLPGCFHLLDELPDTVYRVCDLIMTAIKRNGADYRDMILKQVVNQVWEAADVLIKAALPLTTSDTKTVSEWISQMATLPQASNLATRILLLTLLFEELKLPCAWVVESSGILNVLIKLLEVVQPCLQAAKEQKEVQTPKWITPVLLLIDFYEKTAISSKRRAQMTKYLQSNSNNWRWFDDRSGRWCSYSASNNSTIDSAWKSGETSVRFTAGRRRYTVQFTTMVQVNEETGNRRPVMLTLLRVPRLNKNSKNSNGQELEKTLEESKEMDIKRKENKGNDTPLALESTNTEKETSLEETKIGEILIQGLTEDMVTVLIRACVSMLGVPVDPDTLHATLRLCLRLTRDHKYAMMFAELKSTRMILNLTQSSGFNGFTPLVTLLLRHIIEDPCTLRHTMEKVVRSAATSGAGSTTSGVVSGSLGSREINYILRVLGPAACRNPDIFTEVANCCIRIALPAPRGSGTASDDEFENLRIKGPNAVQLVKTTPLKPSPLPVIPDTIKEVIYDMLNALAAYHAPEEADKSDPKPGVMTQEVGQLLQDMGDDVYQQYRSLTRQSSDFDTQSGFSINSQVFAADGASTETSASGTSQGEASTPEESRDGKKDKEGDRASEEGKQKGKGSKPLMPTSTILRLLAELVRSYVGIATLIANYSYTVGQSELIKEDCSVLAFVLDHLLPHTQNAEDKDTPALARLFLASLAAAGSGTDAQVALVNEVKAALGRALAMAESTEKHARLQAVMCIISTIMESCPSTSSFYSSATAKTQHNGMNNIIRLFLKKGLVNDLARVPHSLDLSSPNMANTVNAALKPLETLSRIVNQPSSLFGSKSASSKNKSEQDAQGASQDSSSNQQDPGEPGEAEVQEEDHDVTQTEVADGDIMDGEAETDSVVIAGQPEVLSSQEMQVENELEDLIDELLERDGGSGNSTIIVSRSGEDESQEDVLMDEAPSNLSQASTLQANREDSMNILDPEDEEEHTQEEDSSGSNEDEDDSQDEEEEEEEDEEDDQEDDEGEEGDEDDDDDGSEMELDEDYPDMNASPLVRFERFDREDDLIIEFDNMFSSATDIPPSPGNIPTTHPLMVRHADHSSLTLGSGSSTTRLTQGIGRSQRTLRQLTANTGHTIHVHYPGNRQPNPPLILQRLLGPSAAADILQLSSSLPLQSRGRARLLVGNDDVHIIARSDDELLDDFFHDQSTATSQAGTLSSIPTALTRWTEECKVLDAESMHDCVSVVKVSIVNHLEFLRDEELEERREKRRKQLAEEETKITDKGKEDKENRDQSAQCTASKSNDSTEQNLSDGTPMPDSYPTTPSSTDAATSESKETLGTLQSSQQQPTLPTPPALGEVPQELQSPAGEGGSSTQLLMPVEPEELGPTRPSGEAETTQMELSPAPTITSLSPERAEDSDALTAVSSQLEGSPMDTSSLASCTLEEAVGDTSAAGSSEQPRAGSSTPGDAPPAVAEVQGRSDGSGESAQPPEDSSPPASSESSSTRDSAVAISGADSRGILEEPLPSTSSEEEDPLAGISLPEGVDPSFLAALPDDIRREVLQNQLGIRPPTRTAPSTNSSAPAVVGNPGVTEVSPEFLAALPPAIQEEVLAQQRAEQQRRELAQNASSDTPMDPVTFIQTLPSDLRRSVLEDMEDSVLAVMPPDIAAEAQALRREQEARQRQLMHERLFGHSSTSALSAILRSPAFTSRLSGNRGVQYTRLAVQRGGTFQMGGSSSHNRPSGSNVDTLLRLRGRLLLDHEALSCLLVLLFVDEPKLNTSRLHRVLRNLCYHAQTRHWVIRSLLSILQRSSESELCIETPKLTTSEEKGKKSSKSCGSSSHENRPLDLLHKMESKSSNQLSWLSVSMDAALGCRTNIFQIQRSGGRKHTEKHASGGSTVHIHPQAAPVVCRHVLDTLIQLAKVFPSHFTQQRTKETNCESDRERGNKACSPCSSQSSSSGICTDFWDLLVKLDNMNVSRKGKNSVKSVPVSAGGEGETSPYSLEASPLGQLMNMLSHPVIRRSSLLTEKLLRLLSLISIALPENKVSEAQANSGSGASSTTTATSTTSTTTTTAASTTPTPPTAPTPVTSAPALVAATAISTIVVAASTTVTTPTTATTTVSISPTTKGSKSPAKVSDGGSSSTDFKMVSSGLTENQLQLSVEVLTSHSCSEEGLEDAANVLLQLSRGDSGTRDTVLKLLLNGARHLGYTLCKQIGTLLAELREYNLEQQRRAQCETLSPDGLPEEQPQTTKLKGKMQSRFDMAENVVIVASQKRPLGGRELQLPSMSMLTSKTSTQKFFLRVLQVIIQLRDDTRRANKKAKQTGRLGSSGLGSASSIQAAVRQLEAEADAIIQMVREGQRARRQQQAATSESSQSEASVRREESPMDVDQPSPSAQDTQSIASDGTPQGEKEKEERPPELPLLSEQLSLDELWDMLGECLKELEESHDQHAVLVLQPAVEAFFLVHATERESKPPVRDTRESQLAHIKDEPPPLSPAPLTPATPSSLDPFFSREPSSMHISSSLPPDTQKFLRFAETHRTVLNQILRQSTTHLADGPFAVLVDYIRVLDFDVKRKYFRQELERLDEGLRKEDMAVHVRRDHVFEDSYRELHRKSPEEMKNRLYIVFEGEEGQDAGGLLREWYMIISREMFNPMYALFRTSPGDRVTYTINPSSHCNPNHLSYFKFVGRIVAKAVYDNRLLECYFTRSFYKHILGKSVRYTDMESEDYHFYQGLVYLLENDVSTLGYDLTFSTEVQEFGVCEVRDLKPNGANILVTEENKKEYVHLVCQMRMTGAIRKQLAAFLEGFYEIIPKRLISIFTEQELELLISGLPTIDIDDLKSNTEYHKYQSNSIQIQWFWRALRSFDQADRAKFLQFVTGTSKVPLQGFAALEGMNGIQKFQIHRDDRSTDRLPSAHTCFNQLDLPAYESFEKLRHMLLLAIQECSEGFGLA
Procedure: as §1

HUWE1^FL [4] = target: T3, HUWE1^FL; experiment: Click chemistry-based detection of compound ubiquitination by HUWE1^FL in vitro; assay type: biochemical
Procedure: In vitro applications: Multi-turnover ubiquitination reactions were performed with 50 nM UBA1, 2.5 μM UBE2L3, 50 nM HUWE1^FL and 20 μM Ub in 20 mM HEPES (pH 7.5), 100 mM NaCl, 0.5 mM TCEP, and 20 μM derivative 6 or 7 ± 0.5 μM MCL1 at 30 °C for 10 min. The reactions were started by addition of 1 mM ATP/3 mM MgCl2 and quenched with 3 M urea. Click-chemistry labeling was performed by incubation of the samples with 20 μM IRDye 800CW Azide Infrared Dye (LI-COR), 5 mM CuSO4, 10 mM THPTA and 50 mM sodium ascorbate for 60 min at 37 °C in the dark, following by quenching with 40 mM EDTA. Following SDS-PAGE, the gels were fixed in 10% acetic acid and 30% ethanol for 2 ×15 min and washed in water overnight.

HEK293T HUWE1 KO cells = experiment: Click chemistry-based detection of compound ubiquitination in HUWE1 knock-out cells (± HUWE1 overexpression); assay type: cell-based, human
Procedure: The protocol for CRISPR/Cas9-mediated HUWE1-knockout in HEK293T cells was previously described. In short, two sgRNAs were cloned separately into pX330-U6-Chimeric_BB-CBh-hSpCas9 (a gift from Feng Zhang; http://n2t.net/addgene:42230; RRID:Addgene_42230)[68] and pSpCas9(BB)−2A-GFP (PX458) (a gift from Feng Zhang; http://n2t.net/addgene:48138; RRID:Addgene_48138)[69]. Transfections were performed with Lipofectamine LTX (Thermo Fisher Scientific), single cells FACS-seeded into 96-well plates, and clones derived from single cells screened for HUWE1 deficiency by sequencing and immunoblotting.
Transient transfections of HA-tagged HUWE1^FL WT and C4341S (Fig. 5g) were performed in antibiotic-free and FBS-free media using Lipofectamine 3000 (Thermo Fisher Scientific). 6 h post transfection the media was exchanged to media supplemented with antibiotics and FBS. 24 h post transfection cells were treated with 10 μM or 20 μM BI8626 derivative 8 for 1 h and then collected.
Cell lysate-based applications: HEK293T WT or HUWE1 KO cells at ~70% confluency on a 10-cm dish were treated with 10 μM or 20 μM BI8626 derivative 6, 7 or 8 for the indicated times. As indicated in the results section, derivative 8 yielded slightly stronger signal than 6 and was thus used for analyses of the prerequisites of cellular small-molecule ubiquitination. Treatment with 1 μM TAK243 (MedChemExpress) or 10 μM MLN4924 (Sigma-Aldrich) was performed for 1 h, prior to derivative 8 administration. […] After 20 min rotating at 4 °C, the lysate was cleared by centrifugation, the total protein concentration determined with a Pierce BCA Protein Assay Kit, the sample diluted to ~7.5 μg μL^−1 and supplemented with 5 μM IRDye 800CW Azide (LI-COR), a mixture of 2 mM CuSO4/10 mM THPTA (Jena Bioscience) and 100 mM sodium ascorbate. […] 10 μL were subjected to SDS-PAGE and analyzed by fluorescence scanning (Odyssey CLx; LI-COR) and Coomassie staining.

SMILES: NS(=O)(=O)OC[C@@H]1C[C@@H](n2ccc3c(N[C@H]4CCc5ccccc54)ncnc32)C[C@@H]1O [MLN4924]
Effect on cell-based ubiquitination of derivative 8 (HEK293T WT cells; 10 μM MLN4924 for 1 h prior to derivative 8): does not markedly affect derivative 8 ubiquitination

SMILES: NS(=O)(=O)OC[C@H]1C[C@@H](Nc2ccnc3cc(-c4cccc(SC(F)(F)F)c4)nn23)[C@H](O)[C@@H]1O [TAK243]
Effect on cell-based ubiquitination of derivative 8 (HEK293T WT cells; 1 μM TAK243 for 1 h prior to derivative 8): markedly reduced

SMILES: NCc1ccc(CNc2ncnc3c(N4CCN(Cc5ccccc5)CC4)ncnc23)cc1 [derivative 1, N-(4-(aminomethyl)benzyl)−8-(4-benzylpiperazin-1-yl)pyrimido[5,4-d]pyrimidin-4-amine]
HUWE1^HECT inhibition (autoubiquitination) by BI8626 derivatives (HUWE1^HECT [1]): retained HUWE1^HECT inhibition | Compound ubiquitination by HUWE1^HECT (SEC, intact protein MS) (HUWE1^HECT [2]): efficiently ubiquitinated | Inhibition of HUWE1^FL by BI8626 derivatives (HUWE1^FL [3]; 20 μM, without protein substrate and with MCL1 (Fig. 4c, d)): also inhibited

SMILES: CN1CCN(c2ncnc3c(NCc4cccc(CN)c4)ncnc23)CC1 [derivative 5, N-(3-(aminomethyl)benzyl)−8-(4-methylpiperazin-1-yl)pyrimido[5,4-d]pyrimidin-4-amine]
Inhibition by derivatives modified at the piperazine-linked benzyl moiety (HUWE1^FL [3]): maintains considerable inhibition

Now from value to molecule, other results behind:

Inhibition by derivatives modified at the piperazine-linked benzyl moiety (HUWE1^FL [3]): preserved inhibition to a similar extent
SMILES: C#CCCCN1CCN(c2ncnc3c(NCc4cccc(CN)c4)ncnc23)CC1 [derivative 6, N-(3-(aminomethyl)benzyl)−8-(4-(pent-4-yn-1-yl)piperazin-1-yl)pyrimido[5,4-d]pyrimidin-4-amine]
Compound ubiquitination by HUWE1^FL, click-chemistry fluorescence (HUWE1^FL [4]; 20 μM compound, 10 min, ATP-dependent): fluorescent signals corresponding to the mono- and diubiquitinated forms | MCL1 ubiquitination (immunoblotting) with increasing compound (HUWE1^FL [4]; varying concentrations of derivative 6 and MCL1): decreased as the compound modification increased | Compound ubiquitination in cells (click chemistry, cell lysates) (HEK293T WT cells): Both mono- and polyubiquitinated forms of derivatives 6 and 8 were detected

Inhibition by derivatives modified at the piperazine-linked benzyl moiety (HUWE1^FL [3]): preserved inhibition to a similar extent
SMILES: C#CCN1CCN(c2ncnc3c(NCc4cccc(CN)c4)ncnc23)CC1 [derivative 8, N-(3-(aminomethyl)benzyl)−8-(4-(prop-2-yn-1-yl)piperazin-1-yl)pyrimido[5,4-d]pyrimidin-4-amine]
Compound ubiquitination in cells (click chemistry, cell lysates) (HEK293T WT cells): Both mono- and polyubiquitinated forms of derivatives 6 and 8 were detected | Compound ubiquitination in HUWE1 knock-out cells (HEK293T HUWE1 KO cells; HEK293T HUWE1 KO vs WT): still detected in this context, albeit at slightly reduced levels | Compound ubiquitination upon overexpression of WT HUWE1 (not catalytically inactive variant) (HEK293T HUWE1 KO cells; HEK293T HUWE1 KO, transient transfection): enhances compound ubiquitination | Share of total compound ubiquitination signal that endogenous HUWE1 accounts for (HEK293T HUWE1 KO cells; HEK293T WT vs HUWE1 KO, all species (8-Ub, 8-Ub2, 8-Ubn)): ≤ 25%
